Data reported in publication PMC8151848, “Tambjamines and Prodiginines: Biocidal Activity against Trypanosoma cruzi” (Pharmaceutics, 2021).
“Also recorded” adds a separate entry of the source. Read-outs that look alike come from different tables or passages of the source.

Key:
[1] = tested on: intact epimastigotes of T. cruzi; assay: Oxygen consumption inhibition analysis (high-resolution respirometry); format: cell-based, Trypanosoma cruzi; details: for % Oxygen Uptake Inhibition (¾ IC50): compound at ¾ IC50; for effect on respiratory inhibition (in words): ½ and ¾ IC50
Experimental: Intact epimastigotes were collected by centrifugation, washed twice in PBS, and resuspended with respiration buffer containing 125 mM sucrose, 65 mM KCL, 10 mM Tris-HCl (pH 7.2), 1 mM […], and 2.5 mM K2PO4. They were then added to a final concentration of 25 × 10^6 cells/mL.
To evaluate the effect of the different drugs on mitochondrial function, we measured mitochondrial respiration in the cells before and after the addition of increasing volumes of the compounds. Each compound was added in titrations until reaching concentrations of ½ and ¾ IC50. Finally, antimycin A (AA) was added to determine the residual oxygen consumption (ROX) through the inhibition of complex III of the electron transport chain. The ROX value was subtracted from the O2 flux as a baseline for all the respiratory states.
Mitochondrial respiration was measured by high-resolution respirometry (OROBOROS Oxygraph-2k; OROBOROS Instruments, Innsbruck, Austria). Data were analyzed by using the Software DatLab Online Data Acquisition and Analysis (OROBOROS Instruments, Innsbruck, Austria). All respirometry assays were performed at a constant temperature of 28 °C, with the volume of each chamber being 2 mL. The oxygen flux values are expressed relative to the cell concentration per second (pmol/sec/10^6 cells). The effect of each compound on mitochondrial function is shown as the percentage of inhibition of oxygen flux.

[2] = Cytotoxicity assay (resazurin) in Hep G2 cells; format: cell-based, human; details: human, n = 9; for cytotoxicity at 24 h, 1 µM: Hep G2, 1 µM, read-out: Cytotoxicity (% cell growth inhibition) at 1 µM ± SD; for cytotoxicity at 24 h, 10 µM: Hep G2, 10 µM, read-out: Cytotoxicity (% cell growth inhibition) at 10 µM ± SD; for cytotoxicity at 24 h, 100 µM: Hep G2, 100 µM, read-out: Cytotoxicity (% cell growth inhibition) at 100 µM ± SD
From the text: Mouse L-929 fibroblasts (NCTC clone 929, ECACC 88102702) were used for both drug toxicity and infection assays. Cell line was obtained from Dr. Concepció Soler, Dept. Pathology & Experimental therapeutics, Faculty of Medicine and Health Sciences, University of Barcelona, Spain. Human hepatocarcinoma Hep G2 cells (American Type Culture Collection (ATCC HB-8065)) were employed only in the drug toxicity assays and were obtained from Dr. Neus Agell, Cell Biology Research Group, Faculty of Medicine and Health Sciences, University of Barcelona, Spain.
Cells were seeded by trypsinization in 96-well microplates (L-929: 4 × 10^3 cells/well; Hep G2: 1.5 × 10^4 cells/well) and incubated for 24 h at 37 °C to allow cell attachment. On the following day, the medium was discarded and replaced with a fresh medium containing the different concentrations of the drugs. […] Medium, growth, and drug blanks were used in each test as controls. Plates were incubated again for another 24 h. After treatment, 20 µL of resazurin diluted in 1X phosphate-buffered saline (PBS; Sigma Aldrich) was added at a final concentration of 70 µM. The plates were incubated for another 24 h, after which fluorescence was measured in a microplate reader (FLUOstar OPTIMA, BMG LABTECH GmbH, Ortenberg, Germany) at an excitation wavelength of 530 nm and an emission wavelength of 590 nm. Each concentration was tested in triplicate and the experiments were repeated three times independently. Results indicated the percentage of toxicity (% T value). (3) % Toxicity=100−(AE−AEB)/(AC−ACB)×100 where AE is the absorbance of the experimental group, AEB the absorbance of the drug blank, AC the absorbance of the untreated cells, and ACB the absorbance of the culture medium blank. […]

[3] = POPC vesicles, external nitrate; ref 1 (Hernando et al., Sci. Rep., 2018); read-out: EC50 (µM) NO3–/Cl–; cited from earlier work
[4] = tested on: epimastigotes of T. cruzi (CL strain, clone B5); set-up: method as in PMID 31210760; details: read-out: IC50 against epimastigotes of T. cruzi (earlier study); cited from earlier work
[5] = tested on: Entamoeba; set-up: method as in PMID 32196500; details: read-out: IC50 against Entamoeba; cited from earlier work
[6] = tested on: Giardia; set-up: method as in PMID 32196500; details: read-out: IC50 against Giardia; cited from earlier work
[7] = tested on: Trypanosoma brucei; set-up: method as in PMID 32196500; details: read-out: IC50 against Trypanosoma brucei; cited from earlier work
[8] = Hep G2 hepatocarcinoma cells (ATCC HB-8065)

| Compound | % Oxygen Uptake Inhibition (½ IC50) ([1]; compound at ½ IC50) [%] | % Oxygen Uptake Inhibition (½ IC50) ([1]; compound at ½ IC50, listed as natural prodigiosin) [%] | Oxygen Uptake (pmol/sec/Million Cells) ([1]; compound at ½ IC50, n = 4) | cytotoxicity at 24 h, 1 µM [2, 8] [%] | cytotoxicity at 24 h, 10 µM [2, 8] [%] | cytotoxicity at 24 h, 100 µM [2, 8] [%] | % Oxygen Uptake Inhibition (¾ IC50) [1] [%] | Oxygen Uptake (pmol/sec/Million Cells) ([1]; compound at ¾ IC50, n = 4) | effect on respiratory inhibition (in words) [1] | EC50 [3] [µM] | cytotoxicity at 24 h, 10 µM [2] [%] | cytotoxicity at 24 h, 100 µM [2] [%] | IC50 [4] [nM] | IC50 [5] [nM] | IC50 [6] [nM] | IC50 [7] [nM] |
| --- | --- | --- | --- | --- | --- | --- | --- | --- | --- | --- | --- | --- | --- | --- | --- | --- |
| CCCCCC1=C/C(=C/c2[nH]c(-c3ccc[nH]3)cc2OC)N=C1C [Natural prodigiosin, prodigiosin] | 72.8 | 73 | 0.73 ± 0.06 | – | – | – | – | – | – | – | – | – | – | – | – | – |
| CCc1c(-c2ccc[nH]2)[nH]c(/C=N/c2ccc(C(C)(C)C)cc2)c1C [MM4] | 2.60 | – | 2.62 ± 0.04 | 0 | 19.1 ± 3.94 | 85.2 ± 9.91 | 2.97 | 2.61 ± 0.04 | little or no effect; also recorded: no inhibitory effect | – | – | – | – | – | – | – |
| CCc1c(-c2ccc[nH]2)[nH]c(/C=N/C2CCCCC2)c1C [MM3] | 41.26 | – | 1.58 ± 0.05 | 0.99 ± 0.92 | 24.9 ± 8.92 | 94.36 ± 0.5 | 42 | 1.56 ± 0.06 | – | 0.035 | – | – | – | – | – | – |
| CCCCCC1=C/C(=C/c2[nH]c(-c3ccc[nH]3)cc2OC)N=C1C [Synthetic prodigiosin, prodigiosin] | 13.58 | – | 2.33 ± 0.09 | – | – | – | 35.18 | 1.74 ± 0.17 | – | – | 90.5 ± 0.82 | 95.2 ± 0.94 | – | – | – | – |
| O=C(Cn1ccnc1[N+](=O)[O-])NCc1ccccc1 [Benznidazole, reference compound] | – | – | – | 0 | 0.44 ± 0.61 | 0.18 ± 0.08 | – | – | – | – | – | – | 18000 | – | – | – |
| COC1=CC(c2cc3ccccc3[nH]2)=N/C1=C\c1[nH]c(C)cc1C [Obatoclax, reference compound] | 0 | – | 2.69 ± 0 | 10.4 ± 4.8 | 63.3 ± 16.9 | 74.8 ± 4.06 | 0 | 2.69 ± 0 | little or no effect | – | – | – | – | 500 | 900 | 40 |
